{"source": "patent US5087704A", "about": "“Cyanine compounds” (Asahi Chemical Co., Ltd., priority 1988, dated 1992)", "key": {"[1]": {"assay": "Wavelength at maximum absorption and molar absorptivity of the cyanine compounds", "type": "physicochemical"}, "Solubility in solvent": {"assay": "Solubility in solvent", "type": "physicochemical", "conditions": "diacetone alcohol, room temperature", "protocol": "Each of cyanine dyes as shown below in Table 2 was dissolved in diacetone alcohol and the solubility was measured at room temperature."}}, "data": [{"compound": "CCCCN1C(=CC=CC=CC2=[N+](CCCC)c3cc4c(cc3C2(C)C)OCO4)C(C)(C)c2cc3c(cc21)OCO3", "note": "[Preparation Example 1]", "values": [{"measurement": "molar absorptivity (ε)", "setting": "[1]", "value": 176000, "unit": "L/mol/cm"}, {"measurement": "wavelength at maximum absorption (λmax)", "setting": "[1]; methanol", "value": 696, "unit": "nm"}, {"measurement": "Solubility (g/l)", "setting": "Solubility in solvent", "value": "At least 30 g/l"}]}, {"compound": "COCCN1C(=CC=CC=CC=CC2=[N+](CCOC)c3cc4c(cc3C2(C)C)OCO4)C(C)(C)c2cc3c(cc21)OCO3", "note": "[Preparation Example 3]", "values": [{"measurement": "wavelength at maximum absorption (λmax)", "setting": "[1]; methanol", "value": 793, "unit": "nm"}]}, {"compound": "CCCCN1C(=CC=CC=CC2=[N+](CCCC)c3cc4c(cc3C2(C)C)OC(C)C4)C(C)(C)c2cc3c(cc21)CC(C)O3", "note": "(centres unmarked) [Preparation Example 4]", "values": [{"measurement": "molar absorptivity (ε)", "setting": "[1]", "value": 194000, "unit": "L/mol/cm"}, {"measurement": "wavelength at maximum absorption (λmax)", "setting": "[1]; diacetone alcohol", "value": 695, "unit": "nm"}, {"measurement": "Solubility (g/l)", "setting": "Solubility in solvent", "value": "At least 30 g/l"}]}, {"compound": "CCOCCN1C(=CC=CC=CC2=[N+](CCOCC)c3cc4c(cc3C2(C)C)CCC4)C(C)(C)c2cc3c(cc21)CCC3", "note": "[Preparation Example 7]", "values": [{"measurement": "molar absorptivity (ε)", "setting": "[1]", "value": 220000, "unit": "L/mol/cm"}, {"measurement": "wavelength at maximum absorption (λmax)", "setting": "[1]; diacetone alcohol", "value": 672, "unit": "nm"}, {"measurement": "Solubility", "setting": "Solubility in solvent", "value": 30, "unit": "mg/mL"}]}, {"compound": "CCCCN1C(=CC=CC=CC2=[N+](CCCC)c3cc4c(cc3C2(C)C)CCC4)C(C)(C)c2cc3c(cc21)CCC3", "note": "[Preparation Example 6]", "values": [{"measurement": "molar absorptivity (ε)", "setting": "[1]", "value": 224000, "unit": "L/mol/cm"}, {"measurement": "wavelength at maximum absorption (λmax)", "setting": "[1]; diacetone alcohol", "value": 670, "unit": "nm"}]}, {"compound": "CCN1C(=CC=CC=CC2=[N+](CC)c3cc4c(cc3C2(C)C)OCO4)C(C)(C)c2cc3c(cc21)OCO3", "note": "[Preparation Example 2]", "values": [{"measurement": "wavelength at maximum absorption (λmax)", "setting": "[1]; methanol", "value": 694, "unit": "nm"}, {"measurement": "Solubility", "setting": "Solubility in solvent", "value": 30, "unit": "mg/mL"}]}, {"compound": "CC1(C)C(=CC=CC=CC2=[N+](CCO)c3cc4c(cc3C2(C)C)OCO4)N(CCO)c2cc3c(cc21)OCO3", "note": "[Preparation Example 10]", "values": [{"measurement": "wavelength at maximum absorption (λmax)", "setting": "[1]; diacetone alcohol", "value": 695, "unit": "nm"}, {"measurement": "Solubility (g/l)", "setting": "Solubility in solvent", "value": "At least 30 g/l"}]}, {"compound": "CC1(C)C(=CC=CC=CC=CC2=[N+](CCS(=O)(=O)O)c3cc4c(cc3C2(C)C)OCO4)N(CCS(=O)(=O)O)c2cc3c(cc21)OCO3", "note": "[Preparation Example 11]", "values": [{"measurement": "molar absorptivity (ε)", "setting": "[1]", "value": 160000, "unit": "L/mol/cm"}, {"measurement": "wavelength at maximum absorption (λmax)", "setting": "[1]; methanol", "value": 790, "unit": "nm"}]}, {"compound": "CC(=O)OCCN1C(=CC=CC=CC=CC2=[N+](CCOC(C)=O)c3cc4c(cc3C2(C)C)CCC4)C(C)(C)c2cc3c(cc21)CCC3", "note": "[Preparation Example 8]", "values": [{"measurement": "molar absorptivity (ε)", "setting": "[1]", "value": 228000, "unit": "L/mol/cm"}, {"measurement": "wavelength at maximum absorption (λmax)", "setting": "[1]; solvent not given", "value": 768, "unit": "nm"}]}, {"compound": "CCCCN1C(=CC=CC=CC2=[N+](CCCC)c3cc4c(cc3C2(C)C)CC(C)O4)C(C)(C)c2cc3c(cc21)OC(C)C3", "note": "(centres unmarked) [Preparation Example 5]", "values": [{"measurement": "molar absorptivity (ε)", "setting": "[1]", "value": 190000, "unit": "L/mol/cm"}, {"measurement": "wavelength at maximum absorption (λmax)", "setting": "[1]; diacetone alcohol", "value": 688, "unit": "nm"}, {"measurement": "Solubility (g/l)", "setting": "Solubility in solvent", "value": "At least 30 g/l"}]}, {"compound": "CCCCN1C(=CC=CC=CC=CC2=[N+](CCCC)c3cc4c(cc3C2(C)C)OC(C)C4)C(C)(C)c2cc3c(cc21)CC(C)O3", "note": "(centres unmarked) [Preparation Example 12]", "values": [{"measurement": "molar absorptivity (ε)", "setting": "[1]", "value": 193000, "unit": "L/mol/cm"}, {"measurement": "wavelength at maximum absorption (λmax)", "setting": "[1]; methanol", "value": 795, "unit": "nm"}]}, {"compound": "COCCN1C(=CC=CC=CC=CC2=[N+](CCOC)c3cc4c(cc3C2(C)C)CCC4)C(C)(C)c2cc3c(cc21)CCC3", "note": "[Preparation Example 9]", "values": [{"measurement": "wavelength at maximum absorption (λmax)", "setting": "[1]; solvent not given", "value": 768, "unit": "nm"}]}]}
